{"source": "patent US20220008494A1", "about": "“COMPOSITION FOR USE IN THE PREVENTION AND/OR SYMPTOMATIC TREATMENT OF IRRITABLE BOWEL SYNDROME” (priority 2018, published 2022)", "origin": "cited, not measured here", "key": {"[1]": {"test_system": "tail withdrawal reaction time", "conditions": "rat, in vivo"}, "IBS patients": {"test_system": "IBS patients", "conditions": "300 mg per day as adjunct to standard therapies"}, "[2]": {"test_system": "carrageenan-induced edema", "conditions": "10 mg/kg p.o.; from 1 to 24 h (p<0.01) compared to the control"}, "[3]": {"conditions": "1 g/day butyric acid and inulin for 1 month, IBS-D compared to IBS-C patients"}}, "data": [{"smiles": "CC(C)=CCN1CCC2(C)c3cc(O)ccc3CC1C2C", "note": "(stereo not shown) [Pentazocine]", "values": [{"measurement": "reaction time (tail withdrawal)", "setting": "[1]", "value": "significant increase"}]}, {"smiles": "CCCC(=O)O", "note": "[butyric acid]", "values": [{"measurement": "condition of IBS-D patients", "setting": "IBS-D patients; 1 g/day butyric acid (4 x 250 mg capsules) and inulin for 1 month", "value": "normalization"}, {"measurement": "frequency of diarrhea episodes", "setting": "IBS-D patients; [3]", "value": "significant reduction"}, {"measurement": "stool consistency", "setting": "IBS-D patients; [3]", "value": "significant increase"}, {"measurement": "frequency of abdominal pain associated with defecation", "setting": "IBS patients; fourth week of treatment", "value": "significant decrease"}, {"measurement": "defecation-associated pain", "setting": "IBS patients; twelfth week", "value": "also decrease"}, {"measurement": "post-defecation stimulus", "setting": "IBS patients; twelfth week", "value": "also decrease"}, {"measurement": "post-prandial abdominal pain", "setting": "IBS patients; twelfth week", "value": "also decrease"}, {"measurement": "spontaneous abdominal pain", "setting": "IBS patients; twelfth week", "value": "also decrease"}]}, {"smiles": "O=C(O)Cc1ccccc1Nc1c(Cl)cccc1Cl", "note": "[Diclofenac, Diclofenac sodium]", "values": [{"measurement": "edema (paw volume, plethysmometrically)", "setting": "[2]", "value": "significant decrease"}]}]}
